“And” between values parts separate entries of the source, which are not always exact repeats. Equal entries are not always repeated.
System: P. falciparum 3D7 growth, pLDH absorbance
Assay: blood-stage malaria parasite growth potency – strain 3D7, dose response (AID 2305)

Row | Compound | IC50
1 | COc1ccc(O)c(C(=O)NCCc2ccc(OC)c(-c3ccc(C(C)(C)C)cc3)c2)c1 | 1.03 µM
2 | CC(=O)Nc1ccc(CN2CCC(N(C)c3cc(NC(=O)c4cccs4)ccn3)CC2)cc1 | 0.89 µM
3 | Cc1[nH]c(C)c(-c2ccc(C#Cc3ccc(F)cc3F)cc2)c(=O)c1Br | 0.03 µM
4 | COCCNCc1ccc(-c2ccc(CN(C(=O)Nc3ccccc3)C3CCN(Cc4ccccc4)CC3)cc2)cc1 | 0.75 µM
5 | Cc1ccc(C(=O)Nc2ccc(Nc3ccnc4cc(-c5nccs5)ccc34)cc2O)cc1 | 0.05 µM
6 | Cc1cc(N(C)C)nc(Nc2ccc(NC(=O)c3ccc(Br)o3)cc2)n1 | 1.05 µM
7 | CCOC(=O)NC1=NC(C)(C)N(OCCCOc2ccc(C)cc2C)C(NC(=O)OCC)=N1 | 0.13 µM
8 | Cc1ccc(-c2ccc3c(c2)C=C(C(=O)NC2CCN(CCNC(=O)c4cccc(C(F)(F)F)c4)CC2)CCC3)cc1 | 0.51 µM
9 | Nc1ncc(-c2cccc(F)c2)cc1-c1nc2ccc(F)cc2[nH]1 | 0.18 µM
10 | COc1ccc(NC(=O)c2cc(-c3ccc(NC(C)=O)cc3)cnc2N)cc1 | 0.81 µM
11 | C/C(=C\C(=O)NC1CC1)c1ccccc1OCc1ccccc1 | 0.5 µM
12 | COc1ccc2nccc([C@@H](O)CN3CCC(NCc4ccc5c(c4)NC(=O)C(C)(C)O5)CC3)c2c1 | 0.4 µM
13 | CC(=O)Nc1ccc(OCCCCN(Cc2ccccc2C(F)(F)F)c2ccc(C(F)(F)F)c(C#N)c2)c(Cl)c1 | 0.55 µM
14 | CC(CN1CCN(CC(c2ccc(F)cc2)N2CCN(C)CC2)CC1)C(=O)c1ccc(O)cc1 (configuration not stated) | 0.67 µM
15 | CCOc1cc2c(cc1OCC)C(c1cc(OC)c(O)cc1Cl)NCC2 (configuration not stated) | 0.75 µM
16 | Cc1ccc2c(c1)c(C1CCN(C(=O)c3ccc([N+](=O)[O-])o3)CC1)cn2C | 0.75 µM
17 | Nc1nccc(-c2ccc3c(-c4cccc(F)c4)cnc(N)c3c2)n1 | 1.02 µM
18 | CC(C)CNC(=O)c1ccnc(-c2ccc(CNC3Cc4ccccc4C3)cc2)c1 | 0.79 µM
19 | CC(Cc1ccc(C2=CCNCC2)cc1)NCC(O)c1cccc(C(F)(F)F)c1 (configuration not stated) | 1.57 µM
20 | CCOc1cc(-c2nnc3[nH]c(=O)n(C)c(=O)c3n2)ccc1OC(C)C | 0.4 µM
21 | O=c1cc(N2CCNCC2)c(Cl)nn1Cc1ccc(NS(=O)(=O)c2ccc(Oc3ccccc3)cc2)cc1 | 0.57 µM
22 | COc1ccc(-c2ccccc2CNc2nc(NCCc3ccc(O)cc3)nc(N3CCNCC3)n2)cc1 | 1.08 µM
23 | O=C(/C=C/c1ccc(Cl)cc1)NCCCCCN1CCC(c2c[nH]c3ccccc23)CC1 | 0.84 µM
24 | COc1cc(NC(=O)N2CCOC(CCN3CCC(c4ccccc4)CC3)(c3ccc(Cl)c(Cl)c3)C2)cc(OC)c1OC (configuration not stated) | 0.07 µM
25 | Cc1[nH]c(C)c(-c2ccc(-c3ccc(Cl)cc3)cc2)c(=O)c1Cl | 0.21 µM

Row | Compound | IC50
26 | CCNC(=O)Nc1cccc(-c2cccc(-c3nc4ccc(C(F)(F)F)cc4[nH]3)c2)c1 | 0.68 µM
27 | CS(=O)(=O)c1ccc(-c2cnc(N)c(-c3ccc(O)cc3)c2)cc1 | 1.36 µM
28 | Nc1nc(N)c2c(n1)CCc1cc(Br)ccc1-2 | 1.13 µM
29 | COCc1nc(-c2ccccc2)nc(N2CCN(C(=O)NC(C)C)CC2)c1Cc1ccccc1F | 1 µM
30 | Cc1cnc(NCCc2ccc(F)cc2)nc1NCCC(=O)Nc1ccccc1 | 0.95 µM
31 | CC(=O)c1ccc(N2C(=O)C3C(Cc4ccc(OC(C)(C)C)cc4)NC4(C(=O)N(Cc5ccc(C(C)(C)C)cc5)c5ccccc54)C3C2=O)cc1 (configuration not stated) | 1.28 µM
32 | COc1ccc2nccc([C@@H](O)CN3CC[C@H](NCc4nc5c(cc4Cl)SCC(=O)N5)[C@H](F)C3)c2c1 | 0.76 µM and 0.51 µM
33 | CN(C)CCCOc1ccc(CNCc2cccc(Oc3ccc(Cl)cc3)c2)cc1 | 0.82 µM
34 | CO/C(=C/C=C/c1cc2cc(Cl)c(Cl)cc2[nH]1)C(=O)NC1CC(C)(C)N(C)C(C)(C)C1 | 0.78 µM
35 | COc1ccc2nccc([C@@H](O)CN3CCC(NCc4cc5cccnc5[nH]4)CC3)c2n1 | 0.96 µM
36 | Cc1cc(NCC(c2ccccc2)c2ccccc2)nc(NCC2CCCCC2)n1 | 0.51 µM
37 | CC(C)CCNC(=O)c1cnc2c(O)cccc2c1Nc1cccc(NC(=O)c2ccc(F)cc2)c1 | 0.91 µM
38 | Cc1cc(-c2cnc(N)c(-c3ccc(N4CCN(C)CC4)cc3)c2)cc(C)c1O | 1.17 µM
39 | O=C(/C=C/c1ccc(Cl)c(Cl)c1)NC1CCN(CCCNC(=O)c2cccc(Cl)c2)CC1 | 0.66 µM
40 | CCOc1ccc2c(NN=Cc3cccc(OC)c3)cc(C)nc2c1 | 0.12 µM
41 | CCCc1cc(Cc2cnc(N)nc2N)cc(CC)c1OC | 0.82 µM
42 | COc1cc2nc(N3CCC(CNC(=O)c4ccc(C(C)=O)cc4)CC3)nc(N)c2cc1OC | 1.12 µM
43 | CC(C)(C)c1ccc(NC(=O)c2ccc(CN3CCCN(Cc4ccc(F)cc4)CC3)cc2)cc1 | 1.11 µM
44 | CN1CCCC(OC(=O)c2ccccc2)C1 (configuration not stated) | 0.76 µM
45 | Cc1cccc2[nH]c(-c3cccc(-c4ccc(NC(=O)Cc5ccon5)cc4)c3)nc12 | 1.09 µM
46 | Cn1cnnc1Sc1ccc(CN2CCOc3ccc(C4=CCCCC4)cc3C2)o1 | 0.85 µM
47 | Cc1[nH]c(C)c(-c2ccc(OCc3ccc(F)cc3)cc2)c(=O)c1Br | 0.08 µM
48 | O=C(Nc1cccc(-c2ccc(CN3CCNCC3)cc2)c1)c1cccc(Cl)c1 | 1.25 µM
49 | CN(C)S(=O)(=O)c1cc(-c2ccc3nccc(-c4cccc(S(N)(=O)=O)c4)c3c2)cnc1N | 0.25 µM
50 | Cc1cc(-c2cccc(CNCc3ccc(F)cc3)c2)ccc1S(=O)(=O)NCCN1CCCC1 | 0.73 µM

Row | Compound | IC50
51 | CC(C)CNCc1cccc(-c2cccc(CN(C(=O)Nc3ccccc3)C3CCN(Cc4ccccc4)CC3)c2)c1 | 0.37 µM
52 | Cc1nnsc1C(=O)Nc1cccc(-c2cccc(-c3nc4ccc(C(F)(F)F)cc4[nH]3)c2)c1 | 0.24 µM
53 | O=C(/C=C/c1cc(F)c(F)cc1F)N1CCC(CN2CCC(c3c[nH]c4ccccc34)CC2)CC1 | 1 µM
54 | NC1=NC(c2ccccc2)(c2ccccn2)C(=O)N1CCCc1ccccc1 (configuration not stated) | 1.04 µM
55 | Cc1[nH]c(C)c(-c2ccc(OCc3cc(F)cc(F)c3)nc2)c(=O)c1Br | 0.1 µM
56 | O=C(/C=C/c1ccc(Cl)c(Cl)c1)NC1CCC(CN2CCC(Cc3cc4ccccc4[nH]3)CC2)CC1 (configuration not stated) | 0.51 µM
57 | CCCCCCNc1cc(C)nc(/N=C(\N)Nc2cccc(C(F)(F)F)c2)n1 | 0.74 µM
58 | O=c1cc(NCCCNCc2cc(C(F)(F)F)ccc2F)[nH]c2ccccc12 | 0.83 µM
59 | COc1ccc2nccc([C@@H](O)CN3CC[C@H](NCc4nc5c(cc4Cl)OCC(=O)N5)[C@H](F)C3)c2c1 | 1.32 µM
60 | Nc1nc(N)c2c(Oc3ccc(Cl)c(Cl)c3)cccc2n1 | 0.87 µM
61 | COc1c(C2CCN(CCCCNC(=O)c3ccc(-c4ccc(C#N)cc4)nc3)CC2)ccc2c1CCCC2 | 0.53 µM
62 | CCOc1cc(C)c(C2CCN(CCCCNC(=O)c3ccc(NC(=O)c4ccc(Cl)cc4)cc3)CC2)cc1C | 0.74 µM
63 | Oc1cccc(CCNCCCCCCNCCc2ccc(Cl)cc2)c1 | 0.77 µM
64 | Cc1cccc2[nH]c(-c3ccc(-c4ccc(NC(=O)N[C@@H]5C[C@H]5c5ccccc5)cc4)cc3)nc12 | 0.88 µM
65 | COc1ccc(CN2CCC(CNCCc3ccccc3Cl)CC2)cc1 | 1.11 µM
66 | CC1Cc2ccccc2N1S(=O)(=O)c1cc(OCC(F)(F)F)ccc1OCC(F)(F)F (configuration not stated) | 0.65 µM
67 | CC(O)c1cccc(-c2ccc(Nc3ccnc4cc(-c5nccs5)ccc34)cc2)c1 (configuration not stated) | 1.01 µM
68 | CCCCCn1c(Sc2ccc(C#N)c([N+](=O)[O-])c2)nnc1-c1cccc(Cl)c1 | 0.77 µM
69 | CC(C)(C)OC(=O)N1CCC(C2CCN(C(=O)OC(C)(C)C)CC2)CC1 | 1.16 µM
70 | CC(C)N1CCC(NC(=O)N2CCCN(c3ncnc4cc(-c5ccc(Cl)cc5)sc34)CC2)CC1 | 1.94 µM
71 | CSc1ccc(CN2CCC(NC(=O)c3ccc(-c4cccc(C(F)(F)F)c4)s3)CC2)cc1 | 1.22 µM
72 | Oc1ccc(CCNc2nc(NCCCOc3cccc(CN4CCCCC4)c3Cl)nc(N3CCNCC3)n2)cc1 | 1.37 µM
73 | CN1CCN(c2ccnc3cc4c(cc23)N(C(=O)Nc2ccc3c(c2)CCCC3=O)CC4)CC1 | 0.62 µM
74 | COc1cc2c(cc1S(=O)(=O)c1ccc(COc3ccc(C(F)(F)F)cc3)cc1)CNCC2 | 0.75 µM
75 | COc1ccc(Nc2ncc3c(-c4cccc(NC(=O)c5ccc(N)cc5)c4)c[nH]c3n2)cc1OC | 0.97 µM

Row | Compound | IC50
76 | COc1cccc2cc(C(=O)N[C@@H](CC(C)C)C(=O)N[C@H](/C=N/N(C)C(=O)OC(C)(C)C)CC(=O)OC(C)(C)C)oc12 | 0.65 µM
77 | O=[N+]([O-])c1cccc(CNC2CCN(Cc3ccc(C(F)(F)F)cc3)CC2)c1 | 0.74 µM
78 | COC(=O)c1cccc(NC(=O)NC2CCN(c3ccnc(Nc4ccc(OC)cc4)n3)C2)c1 (configuration not stated) | 0.47 µM
79 | O=C(Cc1cccnc1)N(Cc1ccc(-c2ccc(CNCc3cccnc3)cn2)cc1)C1CCN(Cc2ccccc2)CC1 | 0.8 µM
80 | CSc1nnc2n(Cc3ccccc3)c(=O)c3c(n12)-c1ccccc1CC31CCCCC1 | 0.97 µM
81 | COc1ccc(C(=O)c2ccc3[nH]cc(C4=CCN(C)CC4)c3c2)cc1 | 1.05 µM
82 | CCN(CC)CCOC(=O)C(OC)(c1ccccc1)c1ccccc1 | 1.02 µM
83 | Cc1ccc(CC(C)(C)NCC(O)c2cccc(C(F)(F)F)c2)cc1 (configuration not stated) | 0.84 µM
84 | O=C(NCCCCCN1CCC(c2c[nH]c3ccccc23)CC1)Nc1ccc(Br)cc1 | 0.92 µM
85 | O=C(c1ccc(Cl)cc1)C1CCCN(C2CCN(CCc3ccccc3)CC2)C1 (configuration not stated) | 1.45 µM
86 | CC(C)Cn1c(Sc2ccc(C#N)c([N+](=O)[O-])c2)nnc1-c1ccccc1 | 1.09 µM
87 | Cc1cc(NCCCOc2ccc(Cl)cc2)nc(NCc2ccccc2)n1 | 0.78 µM
88 | Cc1ccc(C)c(CC(=O)N2CCC(n3c(C)nc4ccc(F)cc43)CC2)c1 | 0.19 µM
89 | COc1ccccc1N1CCN(CCCCNC(=O)c2ccc(NC(=O)c3cc4ccccc4o3)cc2)CC1 | 0.98 µM
90 | CC(O)C1CCCCN1C(=O)c1cccc(-c2ccc(-c3nc4ccccc4[nH]3)s2)c1 (configuration not stated) | 0.8 µM
91 | O=C(Nc1ccc(-c2cccc(-c3nc4ccc(C(F)(F)F)cc4[nH]3)c2)cc1)c1csnn1 | 0.8 µM
92 | COCCCNC(=O)C1CCN(C(c2ccc(Cl)cc2)c2ccc(Cl)cc2)CC1 | 0.92 µM
93 | O=c1ccc(-c2nc3cc(Cl)c(Cl)cc3n2Cc2ccc(Cl)cc2Cl)c[nH]1 | 1.11 µM
94 | Cc1ccccc1OCC(=O)Nc1ccc(-c2nc3cc4ccccc4cc3[nH]2)cc1 | 0.75 µM
95 | O=C(Nc1ccsc1)Nc1cccc(-c2cccc(-c3nc4ccc(F)cc4[nH]3)c2)c1 | 0.2 µM
96 | CN1CCN(c2ccc3nc(-c4ccc5nc(-c6ccc([N+](=O)[O-])c(N)c6)[nH]c5c4)[nH]c3c2)CC1 | 0.1 µM
97 | C[C@H](N[C@H]1CCCc2c1[nH]c1ccc(Br)cc21)c1ccccc1 | 0.22 µM
